Test results: patent publication US8697747B2, “Enhancing coagulation or reducing fibrinolysis” (THe UAB Research Foundation, priority 2009, dated 2014)
Marks after values point to notes of the source that are not given here.

Columns and labels:
pooled normal plasma = assay: Thrombelastographic coagulation kinetics, Celite-activated normal plasma; assay type: biochemical, human; conditions: 100 μM, mean ± SD, n=8
Method: Pooled normal plasma (George King Bio-Medical, Overland Park, Kans.) anticoagulated with sodium citrate was utilized for experimentation. […] Factor XIII (FXIII) deficient plasma anticoagulated with sodium citrate was also obtained from George King Bio-Medical (Overland Park, Kans.).
Plasma Sample Composition. The final volume for all subsequently described plasma sample mixtures was 359.4 μL. […] (Motterlini et al., Expert Opin Investig Drugs, 14:1305-1318 (2005), which is incorporated by reference herein in its entirety).
Clot Lifespan Model Analyses. Plasma sample mixtures were placed in a disposable cup in a computer-controlled THROMBELASTOGRAPH® hemostasis system (Model 5000, Haemoscope Corp., Niles, Ill.), with addition of CaCl2 as the last step to initiate clotting. Data were collected for 15 minutes, as normal plasma completes thrombus formation within this interval in this system (Dong et al., Eur J Pharmacol 590:99-104 (2008)).
Statistical Analyses. Data are presented as mean±SD. All conditions described were represented with n=8 experiments, as n=6-8 typically provides statistical power>0.8 in similar analyses (Nielsen et al., Acta Anaesthesiol Scand 49:222-231 (2005) and Nielsen et al., Blood Coagul Fibrinolysis 17:75-81 (2006)). Analyses of the effects of CORM-2 and iCORM-2 on thrombelastographic variables were conducted using one way analysis of variance with the Holm-Sidak test used for post hoc comparisons. Graphical representation of the data was generated with commercially available software (Origin 7.5, OriginLab Corp., Northampton, Mass.). A P value of ≦0.05 was considered significant.

rabbit plasma = assay: Thrombelastography in rabbit plasma with or without tPA; assay type: biochemical
Method: Two sets of two Sprague Dawley outbred male rats were anesthetized with ketamine and xylazine and had blood drawn via cardiac puncture, pooled in two batches, and anticoagulated 1:9 with 3.2% sodium citrate. Two male New Zealand White rabbits were sedated with acepromazine and had blood collected via central ear artery and similarly anticoagulated. Blood was centrifuged at 3000×g for 15 min, and the plasma stored in two batches until analyzed. The final volume for thrombelastographic plasma sample mixtures was 359.6 μL. Sample composition consisted of 316 μL of plasma; 10 μL of tissue factor reagent (0.1% final concentration in dH2O; Instrumentation Laboratory, Lexington, Mass.); 10 μL of dH2O or tissue-type plasminogen activator (tPA, 580 U/μg, Genentech, Inc., San Francisco, Calif.) for a final activity of 2000 U/mL for rat plasma or 300 IU/mL for rabbit plasma; 3.6 μL of dimethyl sulfoxide (DMSO) or DMSO with CORM-2 (100 μM final concentration; Sigma-Aldrich, St. Louis, Mo.); and 20 μL of 200 mM CaCl2. The tPA activity for each species was determined with pilot data to obtain reproducible lysis within 15 min. There was no appreciable lysis in rat plasma at 100, 300, or 1000 U/mL tPA. Plasma sample mixtures were placed in a disposable cup in a computer-controlled THROMBELASTOGRAPH® hemostasis system (Model 5000, Haemoscope Corp., Niles, Ill.), with addition of CaCl2 as the last step to initiate clotting. In experiments without tPA, data were collected until clot strength (maximum amplitude) was stable. In experiments with tPA, data derived from the second rabbit plasma samples were collected for 60 min whereas data obtained with the second rat plasma samples were collected for 15 min. Thrombelastographic variables were determined at 39° C. as previously described in Examples 1, 2, and 4. Data were statistically compared with unpaired Student's t-test.

[1] = aqueous solution pH=7.4, 37° C.; cited from earlier work
[2] = 300 U/ml tPA, 100 μM CORM-2, mean ± SD, n=4
[3] = 300 U/ml tPA, 100 μM vs 0 μM CORM-2
[4] = no tPA, 100 μM CORM-2, mean ± SD, n=7

[C-]#[O+].[C-]#[O+].[C-]#[O+].[C-]#[O+].[C-]#[O+].[C-]#[O+].[Cl][Ru][Cl].[Cl][Ru][Cl] [CORM-2, tricarbonyldichlororuthenium (II) dimer]
MRTG (maximum rate of thrombus generation) (pooled normal plasma): 13.7 ± 1.3 dynes/cm^2/sec
TMRTG (time to maximum rate of thrombus generation) (pooled normal plasma): 188 ± 18 s
TTG (total thrombus generation) (pooled normal plasma): 248 ± 17 dynes/cm^2
ACL (area under the curve of lysis) (rabbit plasma; [2]): 196.3 ± 25*^ −dynes/cm^2
MRL (maximum rate of lysis) (rabbit plasma; [2]): −2.5 ± 0.4 −dynes/cm^2/sec
MRTG (maximum rate of thrombus generation) (rabbit plasma; [2]): 14.2 ± 1.4 dynes/cm^2/sec
TMRL (time to maximum rate of lysis) (rabbit plasma; [2]): 2.6 ± 0.5 min
TMRTG (time to maximum rate of thrombus generation) (rabbit plasma; [2]): 2.8 ± 0.1 min
TTG (total thrombus generation) (rabbit plasma; [2]): 237 ± 8 dynes/cm^2
Percent Change of ACL (rabbit plasma; [3]): 94%
Percent Change of MRL (rabbit plasma; [3]): −63%
Percent Change of MRTG (rabbit plasma; [3]): 52%
Percent Change of TMRL (rabbit plasma; [3]): 110%
Percent Change of TMRTG (rabbit plasma; [3]): 8%
Percent Change of TTG (rabbit plasma; [3]): 118%
MRTG (maximum rate of thrombus generation) (rabbit plasma; [4]): 13.9 ± 2.9 dynes/cm^2/sec
TMRTG (time to maximum rate of thrombus generation) (rabbit plasma; [4]): 2.8 ± 0.1 min
TTG (total thrombus generation) (rabbit plasma; [4]): 290 ± 35 dynes/cm^2
Percent Change of MRTG (rabbit plasma; no tPA, 100 μM vs 0 μM CORM-2): 46%
Percent Change of TMRTG (rabbit plasma; no tPA, 100 μM vs 0 μM CORM-2): 5%
Percent Change of TTG (rabbit plasma; no tPA, 100 μM vs 0 μM CORM-2): 25%
CO released from every mole of CORM-2 [1]: 0.75 mol
